Experimental data: patent US20070292392A1, “USE OF THYMOSIN ALPHA 1 FOR PREPARING A MEDICAMENT FOR THE TREATMENT OF STAGE IV MALIGNANT MELANOMA” (SIGMA-TAU INDUSTRIE FARMACEUTICHE RIUNITE S.P.A., priority 2006, published 2007)
Ends that are not written are not given here.

How the values were obtained:
[1] = system: metastatic melanoma; conditions: cited from earlier work
[2] = system: human non-small cell lung cancer (NSCLC) cells; conditions: subcutaneous 1 or 10 mg per day; nude mice previously inoculated with human NSCLC cells; cited from earlier work
[3] = system: lymphosarcoma cells; conditions: BALB/c mice; cited from earlier work
[4] = system: stage IV melanoma characterized by distant unresectable metastases; assay: Phase II clinical trial with DTIC plus Tα1 with or without IFNα vs DTIC plus IFNα; tumor response by RECIST; type: in vivo, human; conditions: preliminary analysis on 142 patients; at the higher doses of Tα1
Excerpt: Phase II Clinical Trial with Dacarbazine (DTIC) Plus Thymosin alpha 1 (Tα1) with or without Interferon alpha (IFNα) vs DTIC Plus IFNα in Stage IV Melanoma Characterized by Distant Unresectable Metastases
Trial Design phase II, randomized, stratified, open-study testing different doses of Tα1 in association with DTIC and IFNα, as first line therapy for stage IV melanoma patients characterized by distant unresectable metastases (AJCC; Journal of Clinical Oncology 2001, 19: 3635-3648) without brain metastases. The primary study end-point was tumor response, and the following combination composition were used:
The protocol was than amended: 30 patients were added to each of the 2 triple therapies in order to balance the sample size of all the four groups and the following new group (using a higher dose of Tα1) was added:
The five groups were analyzed independently one another within the so-called “pick the winner” strategy.
Methods: Recycling every 28 days, patients were administered DTIC (800 mg/m^2) i.v. at day 1, Tα1 (1.6 or 3.2 mg) s.c. at days 8-11 and 15-18, and IFNα (3 MIU) s.c. at day 11 and 18. Clinical response was evaluated every two cycles according to RECIST criteria (New Guidelines to Evaluate the Response to Treatment in Solid Tumors; Journal of the National Cancer Institute, 2000. 92: 205-216) utilizing a central reader. […]

| Compound | duration of responses (short-lived) ([1]; DTIC responses) | effect of responses on patients' overall survival ([1]; DTIC) | actual overall responses to DTIC ([1]; Journal of Clinical Oncology and ASCO proceedings 2004) | tumor volume [2] | local sarcoma growth as well as liver and lung metastases of lymphosarcoma cells [3] | dose-response effect on tumor response [4] |
| --- | --- | --- | --- | --- | --- | --- |
| CN(C)/N=N/c1[nH]cnc1C(N)=O [DTIC, Dacarbazine] | three to six | no evidence that these responses have any effect on the patients' overall survival | 5.5-6.8% |  |  |  |
| thymosin alpha 1 (SDAAVDTSSEITTKDLKEKKEVVEEAEN; ends and bridges not checked; UniProt P06454 2-29, looked up) [a compound well known in the medical field] |  |  |  | significantly decreased | significantly reduced | clear dose-response effect |
